Laboratory results: ChEMBL document CHEMBL3227976, “Synthesis of steroidal nitrosoureas with antitumor activity” (1979)

Tests used:
Assay type in all cases: functional
Conditions in all cases: Rattus norvegicus, 13762, sc; route subcutaneous; read-out: TGI
13762 [1] = test: Antitumor activity against rat 13762 cells allografted in Fischer/344 rat assessed as tumor growth inhibition at 2 mg/kg/day, sc for 10 days followed by double the dose every 2 days from day 11 to day 19 relative to vehicle-treated control
13762 [2] = test: Antitumor activity against rat 13762 cells allografted in Fischer/344 rat assessed as tumor growth inhibition at 10 mg/kg/day, sc for 10 days followed by double the dose every 2 days from day 11 to day 19 relative to vehicle-treated control
13762 [3] = test: Antitumor activity against rat 13762 cells allografted in Fischer/344 rat assessed as tumor growth inhibition at 40 mg/kg/day, sc for 10 days followed by double the dose every 2 days from day 11 to day 19 relative to vehicle-treated control

| SMILES | inhibition in vivo at 2 mg/kg/day 13762 [1] | inhibition in vivo at 10 mg/kg/day 13762 [2] | inhibition in vivo at 40 mg/kg/day 13762 [3] |
| --- | --- | --- | --- |
| C[C@]12CC[C@@H]3c4ccc(O)cc4CC[C@H]3[C@@H]1CC[C@@]2(O)CNC(=O)N(CCCl)N=O | 0% | 35% | 85% |
| C[C@]12CC[C@@H]3c4ccc(O)cc4CC[C@H]3[C@@H]1CC[C@@H]2NC(=O)N(CCCl)N=O | 0% | 50% | 100% |
| O=NN(CCCl)C(=O)NC1CCCCC1 [LOMUSTINE] | – | 80% | – |
| CN(N=O)C(=O)NC[C@]1(O)CC[C@H]2[C@@H]3CCc4cc(O)ccc4[C@H]3CC[C@@]21C | 0% | 10% | 23% |
| CN(N=O)C(=O)N[C@H]1CC[C@H]2[C@@H]3CCc4cc(O)ccc4[C@H]3CC[C@]12C | 4% | 15% | 15% |
